In US11530221B2, “Pyrimido[4,5-d]pyrimidin-2-one derivatives as protein kinase inhibitors” (KOREA INSTITUTE OF SCIENCE AND TECHNOLOGY, priority 2019, dated 2022):
Read-outs that look alike come from different tables or passages of the source. Square brackets hold non-standard residues; d marks the D form. Peptide text beside a SMILES is read from it. * marks the point of attachment. X1 = Cc1ccc(Nc2ncc3c(n2)N(C)C(=O)N(c2cc(C(=O)*)ccc2C)C3)cn1; Chg = N[C@H](C(=O)O)C1CCCCC1; Aze = O=C(O)[C@@H]1CCN1; Nva = CCC[C@H](N)C(=O)O; Aib = CC(C)(N)C(=O)O

Experiments:
Assay type in all cases: biochemical
LCK = LCK (Homo sapiens, UniProt P06239); experiment: IC50 inhibitory activity against LCK kinase
LCK, sequence (P06239 whole entry): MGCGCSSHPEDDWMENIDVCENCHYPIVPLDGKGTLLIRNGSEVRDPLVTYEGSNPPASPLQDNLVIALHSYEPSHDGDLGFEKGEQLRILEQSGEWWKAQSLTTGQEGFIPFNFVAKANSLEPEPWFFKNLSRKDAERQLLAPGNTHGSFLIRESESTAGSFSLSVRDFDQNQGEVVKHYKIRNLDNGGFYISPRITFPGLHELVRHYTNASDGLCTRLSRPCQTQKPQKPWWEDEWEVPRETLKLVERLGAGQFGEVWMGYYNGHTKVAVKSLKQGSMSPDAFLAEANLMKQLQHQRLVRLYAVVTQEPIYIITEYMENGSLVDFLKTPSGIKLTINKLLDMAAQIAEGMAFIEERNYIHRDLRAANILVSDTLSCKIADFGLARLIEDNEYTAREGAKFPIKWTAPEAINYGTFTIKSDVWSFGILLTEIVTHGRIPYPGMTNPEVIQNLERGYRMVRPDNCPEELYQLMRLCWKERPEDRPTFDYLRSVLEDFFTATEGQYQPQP
Protocol: (§1) IC50 values were calculated by measuring the inhibitory activity against LCK, c-Src, p38a/MAPK14, ABL1, DDR1 and FGR kinases of the compounds of the present invention.

c-Src = c-Src (Homo sapiens, UniProt P12931); experiment: IC50 inhibitory activity against c-Src kinase
c-Src, sequence (P12931 whole entry): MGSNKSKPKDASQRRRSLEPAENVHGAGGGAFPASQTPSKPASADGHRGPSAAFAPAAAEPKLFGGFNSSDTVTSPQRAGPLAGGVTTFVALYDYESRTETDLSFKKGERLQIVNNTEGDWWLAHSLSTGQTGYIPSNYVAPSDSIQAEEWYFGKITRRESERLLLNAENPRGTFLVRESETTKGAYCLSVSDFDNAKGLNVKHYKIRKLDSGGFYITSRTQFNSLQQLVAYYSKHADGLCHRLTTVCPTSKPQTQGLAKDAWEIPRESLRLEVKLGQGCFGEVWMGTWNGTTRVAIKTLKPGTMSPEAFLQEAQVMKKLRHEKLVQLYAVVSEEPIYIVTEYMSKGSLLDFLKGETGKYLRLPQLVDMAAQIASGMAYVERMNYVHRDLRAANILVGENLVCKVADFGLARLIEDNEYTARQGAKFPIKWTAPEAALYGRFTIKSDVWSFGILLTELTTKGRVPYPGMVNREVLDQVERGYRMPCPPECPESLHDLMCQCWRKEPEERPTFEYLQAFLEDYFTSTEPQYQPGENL
Protocol: as §1

ABL1 = ABL1 (Homo sapiens, UniProt P00519); experiment: IC50 inhibitory activity against ABL1 kinase
ABL1, sequence (P00519 whole entry): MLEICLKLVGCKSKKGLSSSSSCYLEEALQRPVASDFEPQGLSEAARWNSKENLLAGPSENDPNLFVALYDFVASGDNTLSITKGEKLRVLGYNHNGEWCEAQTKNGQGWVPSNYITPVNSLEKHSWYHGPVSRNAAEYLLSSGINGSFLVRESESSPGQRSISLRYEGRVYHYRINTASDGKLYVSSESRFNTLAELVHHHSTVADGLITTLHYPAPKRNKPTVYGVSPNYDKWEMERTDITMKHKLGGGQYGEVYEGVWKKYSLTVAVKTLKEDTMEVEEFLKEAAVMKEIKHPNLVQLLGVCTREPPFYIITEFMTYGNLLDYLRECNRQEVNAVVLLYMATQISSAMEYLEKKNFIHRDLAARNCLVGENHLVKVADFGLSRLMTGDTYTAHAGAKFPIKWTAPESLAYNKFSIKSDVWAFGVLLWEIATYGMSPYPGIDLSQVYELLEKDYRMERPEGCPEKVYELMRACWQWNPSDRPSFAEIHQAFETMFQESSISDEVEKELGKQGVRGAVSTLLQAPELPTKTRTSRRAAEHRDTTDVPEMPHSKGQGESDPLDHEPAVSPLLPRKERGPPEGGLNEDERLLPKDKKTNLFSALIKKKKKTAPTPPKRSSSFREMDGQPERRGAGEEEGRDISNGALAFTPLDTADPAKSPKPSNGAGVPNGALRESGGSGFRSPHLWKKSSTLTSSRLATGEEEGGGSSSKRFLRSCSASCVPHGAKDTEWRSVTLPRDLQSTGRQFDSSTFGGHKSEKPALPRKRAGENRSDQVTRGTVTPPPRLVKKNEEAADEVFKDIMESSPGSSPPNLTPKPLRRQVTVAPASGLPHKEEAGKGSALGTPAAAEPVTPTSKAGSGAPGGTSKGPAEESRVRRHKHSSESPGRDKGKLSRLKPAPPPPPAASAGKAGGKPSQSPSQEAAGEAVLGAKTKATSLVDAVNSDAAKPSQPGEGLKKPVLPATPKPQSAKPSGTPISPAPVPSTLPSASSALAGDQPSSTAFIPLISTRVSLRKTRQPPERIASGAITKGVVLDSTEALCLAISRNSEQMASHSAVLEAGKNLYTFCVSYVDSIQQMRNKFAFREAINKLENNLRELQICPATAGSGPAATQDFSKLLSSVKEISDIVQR
Protocol: as §1

p38a/MAPK14 = p38a/MAPK14 (Homo sapiens, UniProt Q16539); experiment: IC50 inhibitory activity against p38a/MAPK14 kinase; details: read-out: p38a/MAPK14 IC50
p38a/MAPK14, sequence (Q16539 whole entry): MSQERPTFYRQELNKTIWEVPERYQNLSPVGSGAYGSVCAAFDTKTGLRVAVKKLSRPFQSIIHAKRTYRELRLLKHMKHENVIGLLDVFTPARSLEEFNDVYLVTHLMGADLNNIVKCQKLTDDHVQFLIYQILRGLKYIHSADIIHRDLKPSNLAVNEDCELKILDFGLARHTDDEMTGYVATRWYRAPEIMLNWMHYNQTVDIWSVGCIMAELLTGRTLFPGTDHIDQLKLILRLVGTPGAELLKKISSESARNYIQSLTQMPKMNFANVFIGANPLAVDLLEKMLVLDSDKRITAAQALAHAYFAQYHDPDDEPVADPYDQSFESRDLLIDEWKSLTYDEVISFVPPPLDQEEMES
Protocol: as §1

| Structure (SMILES) | IC50 (LCK; read-out: LCK IC50) [nM] | IC50 (c-Src; read-out: c-Src IC50) [nM] | IC50 (ABL1; read-out: ABL1 IC50) [nM] | IC50 (p38a/MAPK14) [nM] | IC50 (LCK) [nM] | IC50 (c-Src) [nM] | IC50 (ABL1) [nM] |
| --- | --- | --- | --- | --- | --- | --- | --- |
| Cc1ccc(Nc2ncc3c(n2)N(C)C(=O)N(c2cc(C(=O)NCC(=O)N4CCC[C@H]4C(=O)NC(C)(C)C(=O)N[C@@H](CC(C)C)C(=O)N(C)C)ccc2C)C3)cn1 [Example 18, (S)—N-(1-(((S)-1-(dimethylamino)-4-methyl-1-oxopentan-2-yl)amino)-2-methyl-1-oxopropan-2-yl)-1-((4-methyl-3-(1-methyl-7-((6-methylpyridin-3-yl)amino)-2-oxo-1,4-dihydropyrimido[4,5-d]pyrimidin-3(2H)-yl)benzoyl)glycyl)pyrrolidine-2-carboxamide] (X1-GP[Aib]L-NMe2) |  |  |  |  | 200 to 400 | 400 to 600 | 1 to 200 |
| COc1ccc(CCOc2cc(C(=O)N[C@@H](C)C(=O)Nc3ccc(C)c(N4Cc5cnc(Nc6ccc(C)nc6)nc5N(C)C4=O)c3)ccc2[N+](=O)[O-])cc1 [Example 56] |  |  | 1 to 200 | > 600 |  |  |  |
| Cc1ccc(Nc2ncc3c(n2)N(C)C(=O)N(c2cc(C(=O)N[C@H](C(=O)N4CCC[C@H]4C(=O)NC(C)(C)C(=O)N[C@@H](CC(C)C)C(=O)N(C)C)C4CCCCC4)ccc2C)C3)cn1 [Example 19, (S)-1-((S)-2-cyclohexyl-2-((4-methyl-3-(1-methyl-7-((6-methylpyridin-3-yl)amino)-2-oxo-1,4-dihydropyrimido[4,5-d]pyrimidin-3(2H)-yl)benzamido)acetyl)-N-(1-(((S)-1-dimethylamino)-4-methyl-1-oxopentan-2-yl)amino)-2-methyl-1-oxopropan-2-yl]pyrrolidine-2-carboxamide] (X1-[Chg]P[Aib]L-NMe2) |  |  |  |  | 1 to 200 | 400 to 600 | 200 to 400 |
| Cc1ccc(Nc2ncc3c(n2)N(C)C(=O)N(c2cc(C(=O)N[C@H](C(=O)N4CC[C@H]4C(=O)NC(C)(C)C(=O)N[C@@H](CC(C)C)C(=O)N(C)C)C(C)C)ccc2C)C3)cn1 [Example 15, (S)—N-(1-(((S)-1-(dimethylamino)-4-methyl-1-oxopentan-2-yl)amino)-2-methyl-1-oxopropan-2-yl)-1-((4-methyl-3-(1-methyl-7-((6-methylpyridin-3-yl)amino)-2-oxo-1,4-dihydropyrimido[4,5-d]pyrimidin-3(2H)-yl)benzoyl)-L-valyl)azetidine-2-carboxamide] (X1-V[Aze][Aib]L-NMe2) |  |  |  |  | 200 to 400 | > 600 | 1 to 200 |
| Cc1ccc(Nc2ncc3c(n2)N(C)C(=O)N(c2cc(C(=O)N[C@@H](CC(C)C)C(=O)N4CCC[C@H]4C(=O)NC(C)(C)C(=O)N[C@@H](CC(C)C)C(=O)N(C)C)ccc2C)C3)cn1 [Example 20, (S)—N-(1-(((S)-1-(dimethylamino)-4-methyl-1-oxopentan-2-yl)amino)-2-methyl-1-oxopropan-2-yl)-1-((4-methyl-3-(1-methyl-7-((6-methylpyridin-3-yl)amino)-2-oxo-1,4-dihydropyrimido[4,5-d]pyrimidin-3(2H)-yl)benzoyl)-L-lucyl)pyrrolidine-2-carboxamide] (X1-LP[Aib]L-NMe2) |  |  |  |  | 1 to 200 | 1 to 200 | 1 to 200 |
| Cc1ccc(Nc2ncc3c(n2)N(C)C(=O)N(c2cc(C(=O)N[C@H](C(=O)N4CCC[C@H]4C(=O)NCC(=O)N[C@@H](CC(C)C)C(=O)N(C)C)C(C)C)ccc2C)C3)cn1 [Example 6, (S)—N-(2-(((S)-1-(dimethylamino)-4-methyl-1-oxopentan-2-yl)amino)-2-oxoethyl)-1-((4-methyl-3-(1-methyl-7-((6-methylpyridin-3-yl)amino)-2-oxo-1,4-dihydropyrimido[4,5-d]pyrimidin-3(2H)-yl)benzoyl)-L-valyl)pyrrolidine-2-carboxamide] (X1-VPGL-NMe2) |  |  |  |  | 1 to 200 | > 600 |  |
| CCC[C@H](NC(=O)c1ccc(C)c(N2Cc3cnc(Nc4ccc(C)nc4)nc3N(C)C2=O)c1)C(=O)N1CCC[C@H]1C(=O)NC(C)(C)C(=O)N[C@@H](CC(C)C)C(=O)N(C)C [Example 21, (S)—N-(1-(((S)-1-(dimethylamino)-4-methyl-1-oxopentan-2-yl)amino)-2-methyl-1-oxopropan-2-yl)-1-((S)-2-(4-methyl-3-(1-methyl-7-((6-methylpyridin-3-yl)amino)-2-oxo-1,4-dihydropyrimido[4,5-d]pyrimidin-3(2H)-yl)benzamido)pentanoyl)pyrrolidine-2-carboxamide] (X1-[Nva]P[Aib]L-NMe2) |  |  |  |  | 1 to 200 | 400 to 600 | 1 to 200 |

The next lines start with results.

| IC50 (LCK; read-out: LCK IC50) [nM] | IC50 (c-Src; read-out: c-Src IC50) [nM] | IC50 (ABL1; read-out: ABL1 IC50) [nM] | IC50 (p38a/MAPK14) [nM] | Structure (SMILES) | IC50 (LCK) [nM] | IC50 (c-Src) [nM] | IC50 (ABL1) [nM] |
| --- | --- | --- | --- | --- | --- | --- | --- |
| 1 to 200 | 200 to 400 | 1 to 200 |  | CC[C@H](C)[C@H](NC(=O)c1ccc(C)c(N2Cc3cnc(Nc4ccc(C)nc4)nc3N(C)C2=O)c1)C(=O)N1CCC[C@H]1C(=O)NC(C)(C)C(=O)N[C@@H](CC(C)C)C(=O)N(C)C [Example 16, (S)—N-(1-(((S)-1-(dimethylamino)-4-methyl-1-oxopentan-2-yl)amino)-2-methyl-1-oxopropan-2-yl)-1-((4-methyl-3-(1-methyl-7-((6-methylpyridin-3-yl)amino)-2-oxo-1,4-dihydropyrimido[4,5-d]pyrimidin-3(2H)-yl)benzoyl)-L-isoleucyl)pyrrolidine-2-carboxamide] (X1-IP[Aib]L-NMe2) |  |  |  |
|  |  | > 600 |  | Cc1ccc(Nc2ncc3c(n2)N(C)C(=O)N(c2cc(NC(=O)[C@H](Cc4c[nH]c5ccccc45)NC(=O)c4ccc([N+](=O)[O-])c(OCC(C)C)c4)ccc2C)C3)cn1 [Example 55] |  |  |  |
|  |  | 1 to 200 | 200 to 400 | Cc1ccc(Nc2ncc3c(n2)N(C)C(=O)N(c2cc(NC(=O)c4ccc([N+](=O)[O-])c(OCCc5c[nH]c6ccccc56)c4)ccc2C)C3)cn1 [Example 50, 3-(2-(1H-indol-3-yl)ethoxy)-N-(4-methyl-3-(1-methyl-7-((6-methylpyridin-3-yl)amino)-2-oxo-1,4-dihydropyrimido[4,5-d]pyrimidin-3(2H)-yl)phenyl)-4-nitrobenzamide] |  |  |  |
| 1 to 200 | 200 to 400 | 1 to 200 |  | Cc1ccc(Nc2ncc3c(n2)N(C)C(=O)N(c2cc(C(=O)N[C@@H](C)C(=O)N4CCC[C@H]4C(=O)NC(C)(C)C(=O)N[C@@H](CC(C)C)C(=O)N(C)C)ccc2C)C3)cn1 [Example 17, (S)—N-(1-(((S)-1-(dimethylamino)-4-methyl-1-oxopentan-2-yl)amino)-2-methyl-1-oxopropan-2-yl)-1-((4-methyl-3-(1-methyl-7-((6-methylpyridin-3-yl)amino)-2-oxo-1,4-dihydropyrimido[4,5-d]pyrimidin-3(2H)-yl)benzoyl)-L-alanyl)pyrrolidine-2-carboxamide] (X1-AP[Aib]L-NMe2) |  |  |  |
| 1 to 200 | 400 to 600 |  |  | Cc1ccc(Nc2ncc3c(n2)N(C)C(=O)N(c2cc(C(=O)N[C@@H](Cc4ccccc4)C(=O)N4CCC[C@@H]4C(=O)N[C@H](C(=O)N[C@H](C)c4ccccc4)C(C)C)ccc2C)C3)cn1 [Example 7, (R)—N—((S)-3-methyl-1-oxo-1-(((R)-1-phenylethyl)amino)butan-2-yl)-1-((4-methyl-3-(1-methyl-7-((6-methylpyridin-3-yl)amino)-2-oxo-1,4-dihydropyrimido[4,5-d]pyrimidin-3(2H)-yl)benzoyl)-L-phenylalanyl)pyrrolidine-2-carboxamide] |  |  |  |
| 1 to 200 | 1 to 200 |  |  | Cc1ccc(Nc2ncc3c(n2)N(C)C(=O)N(c2cc(C(=O)N[C@H](C(=O)N4CCC[C@H]4C(=O)N[C@@H](Cc4ccccc4)C(=O)N[C@@H](CC(C)C)C(=O)N(C)C)C(C)C)ccc2C)C3)cn1 [Example 11] (X1-VPFL-NMe2) |  |  |  |
